Laboratory results reported in patent US12692261B2, “Substituted heterocyclic compounds and therapeutic uses thereof” (Bayer Aktiengesellschaft, priority 2020, dated 2026).

What was measured:
Assay type in all cases: biochemical
[1] = target: T1, full-length human CSNK1A1 (Homo sapiens, UniProt P48729); test: CSNK1A1 High ATP Assay (ADP-Glo, 1 mM ATP); details: Table 3, read-out: CSNK1A1 high ATP assay IC50 [mol/l] (median);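 note: 30 min kinase reaction at 22 °C with 100 µM peptide substrate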
T1 construct: N-terminal Glutathion-S-Transferase (GST) and full-length human CSNK1A1; purchased Life Technologies PV4174; host or cells: baculovirus infected insect cells
Description: CSNK1A1-inhibitory activity of compounds of the present invention in presence of 1 mM adenosine-tri-phosphate (ATP) was quantified employing the CSNK1A1-high-ATP-assay as described in the following paragraphs. In essence, the enzyme activity is measured by quantification of the adenosine-di-phosphate (ADP), which is generated as a co-product of the enzyme reaction, via the “ADP-Glo™ Kinase Assay” kit from the company Promega. This detection system works as follows: In a first step the ATP not consumed in the kinase reaction is quantitatively converted to cAMP employing an adenylate cyclase (“ADP-Glo-reagent”), then the adenylate cyclase is stopped and the ADP generated in the kinase reaction converted to ATP which generates in a luciferase-based reaction a glow-luminescence signal (“Kinase Detection Reagent”).
(§1) Recombinant fusion protein of N-terminal Glutathion-S-Transferase (GST) and full-length human CSNK1A1, expressed by baculovirus infected insect cells and purified via Glutathion affinity chromatography, was purchased from Life Technologies (product no. PV4174) and used as enzyme. As substrate for the kinase reaction the biotinylated peptide biotin-Ahx-KRRRAL-pS-VASLPGL (C-terminus in amide form) was used which can be purchased e.g. from the company Biosyntan (Berlin-Buch, Germany).
For the assay 50 nl of a 100 fold concentrated solution of the test compound in DMSO was pipetted into a white low volume 384-well microtiter plate (Greiner Bio-One, Frickenhausen, Germany), 2 μL of a solution of CSNK1A1 in aqueous assay buffer [50 mM HEPES pH 7.5, 10% (v/v) glycerol, 10 mM MgCl2, 50 mM NaCl, 1 mM dithiothreitol, 0.01% (w/v) bovine serum albumin, 0.01% (v/v) Triton X-100] were added and the mixture was incubated for 15 min at 22° C. to allow pre-binding of the test compounds to the enzyme before the start of the kinase reaction. […] The concentration of CSNK1A1 was adjusted depending of the activity of the enzyme lot and was chosen appropriate to have the assay in the linear range, a typical concentration is about 0.4 ng/μL. The reaction was stopped by the addition of 2.5 μL of “ADP-Glo-reagent” (1:1.5 fold diluted with water) and the resulting mixture was incubated at 22° C. for 1 h to convert the ATP not consumed in the kinase reaction completely […]. Subsequently 2.5 μL of the “kinase detection reagent” (1.2 fold more concentrated than recommended by the producer) were added, the resulting mixture was incubated at 22° C. for 1 h and then the luminescence measured with a suitable measurement instrument (e.g. Viewlux™ from Perkin-Elmer). The amount of emitted light was taken as a measure for the amount of ADP generated and thereby for the activity of the CSNK1A1.

full-length human CSNK1D = target: T2, full-length human CSNK1D (Homo sapiens, UniProt P48730); test: CSNK1D Assay (ADP-Glo, 1 μM ATP); details: Table 3, read-out: CSNK1D IC50 [mol/l] (median)
T2 construct: N-terminal Glutathion-S-Transferase (GST) and full-length human CSNK1D; purchased Life Technologies PV3665; host or cells: baculovirus infected insect cells
Description: CSNK1D-inhibitory activity of compounds of the present invention in presence of 1 μM adenosine-tri-phosphate (ATP) was quantified employing the CSNK1 D assay as described in the following paragraphs. In essence, the enzyme activity is measured by quantification of the adenosine-di-phosphate (ADP), which is generated as a co-product of the enzyme reaction, via the “ADP-Glo™ Kinase Assay” kit from the company Promega. This detection system works as follows: In a first step the ATP not consumed in the kinase reaction is quantitatively converted to cAMP employing an adenylate cyclase (“ADP-Glo-reagent”), then the adenylate cyclase is stopped and the ADP generated in the kinase reaction converted to ATP which generates in a luciferase-based reaction a glow-luminescence signal (“Kinase Detection Reagent”).
as §1, with “CSNK1D,” for “CSNK1A1,”, “PV3665)” for “PV4174)”, “Btn-Ahx-[…]” for “biotin-Ahx-KRRRAL-pS-VASLPGL”
For the assay 50 nl of a 100 fold concentrated solution of the test compound in DMSO was pipetted into a white 1536-well microtiter plate (Greiner Bio-One, Frickenhausen, Germany), 2 μL of a solution of CSNK1D in aqueous assay buffer [50 mM HEPES pH 7.5, 10% (v/v) glycerol, 10 mM MgCl2, 50 mM NaCl, 1 mM dithiothreitol, 0.01% (w/v) bovine serum albumin, 0.01% (v/v) Triton X-100] were added and the mixture was incubated for 15 min at 22° C. to allow pre-binding of the test compounds to the enzyme before the start of the kinase reaction. […] The concentration of CSNK1D was adjusted depending of the activity of the enzyme lot and was chosen appropriate to have the assay in the linear range, a typical concentration is about 0.5 ng/μL. The reaction was stopped by the addition of 2.5 μL of “ADP-Glo-reagent” (1:1.5 fold diluted with water) and the resulting mixture was incubated at 22° C. for 1 h to convert the ATP not consumed in the kinase reaction completely […]. Subsequently 2.5 μL of the “kinase detection reagent” (1.2 fold more concentrated than recommended by the producer) were added, the resulting mixture was incubated at 22° C. for 1 h and then the luminescence measured with a suitable measurement instrument (e.g. Viewlux™ from Perkin-Elmer). The amount of emitted light was taken as a measure for the amount of ADP generated and thereby for the activity of the CSNK1D.

[2] = target: T1, full-length human CSNK1A1; test: CSNK1A1 Assay 2 (ADP-Glo, 1 μM ATP, substrate biotin-Ahx-KRRRAL-pS-VASLPGL); details: Table 3, read-out: CSNK1A1 Assay 2 IC50 [mol/l] (median)
Description: CSNK1A1-inhibitory activity of compounds of the present invention in presence of 1 μM adenosine-tri-phosphate (ATP) was quantified employing the CSNK1A1 assay as described in the following paragraphs. In essence, the enzyme activity is measured by quantification of the adenosine-di-phosphate (ADP), which is generated as a co-product of the enzyme reaction, via the “ADP-Glo™ Kinase Assay” kit from the company Promega. This detection system works as follows: In a first step the ATP not consumed in the kinase reaction is quantitatively converted to cAMP employing an adenylate cyclase (“ADP-Glo-reagent”), then the adenylate cyclase is stopped and the ADP generated in the kinase reaction converted to ATP which generates in a luciferase-based reaction a glow-luminescence signal (“Kinase Detection Reagent”).
as §1
For the assay 50 nl of a 100 fold concentrated solution of the test compound in DMSO was pipetted into a white 1536-well microtiter plate (Greiner Bio-One, Frickenhausen, Germany), 2 μL of a solution of CSNK1A1 in aqueous assay buffer [50 mM HEPES pH 7.5, 10% (v/v) glycerol, 10 mM MgCl2, 50 mM NaCl, 1 mM dithiothreitol, 0.01% (w/v) bovine serum albumin, 0.01% (v/v) Triton X-100] were added and the mixture was incubated for 15 min at 22° C. to allow pre-binding of the test compounds to the enzyme before the start of the kinase reaction. […] The concentration of CSNK1A1 was adjusted depending of the activity of the enzyme lot and was chosen appropriate to have the assay in the linear range, a typical concentrations are about 0.0375 ng/μL. The reaction was stopped by the addition of 2.5 μL of “ADP-Glo-reagent” (1:1.5 fold diluted with water) and the resulting mixture was incubated at 22° C. for 1 h to convert the ATP not consumed in the kinase reaction completely […]. Subsequently 2.5 μL of the “kinase detection reagent” (1.2 fold more concentrated than recommended by the producer) were added, the resulting mixture was incubated at 22° C. for 1 h and then the luminescence measured with a suitable measurement instrument (e.g. Viewlux™ from Perkin-Elmer). The amount of emitted light was taken as a measure for the amount of ADP generated and thereby for the activity of the CSNK1A1.

T2 sequence (P48730 whole entry): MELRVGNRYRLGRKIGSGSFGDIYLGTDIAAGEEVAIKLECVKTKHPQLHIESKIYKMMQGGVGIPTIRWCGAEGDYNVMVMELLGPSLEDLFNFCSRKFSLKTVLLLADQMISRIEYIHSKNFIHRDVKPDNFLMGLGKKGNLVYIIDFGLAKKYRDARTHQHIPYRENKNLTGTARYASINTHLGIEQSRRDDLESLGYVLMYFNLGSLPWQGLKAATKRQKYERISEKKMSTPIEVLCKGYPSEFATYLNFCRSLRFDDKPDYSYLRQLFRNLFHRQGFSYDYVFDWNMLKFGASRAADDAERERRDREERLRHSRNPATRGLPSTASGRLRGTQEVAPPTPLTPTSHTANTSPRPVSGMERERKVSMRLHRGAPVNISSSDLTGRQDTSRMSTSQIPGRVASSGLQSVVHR
T1 sequence (P48729 whole entry): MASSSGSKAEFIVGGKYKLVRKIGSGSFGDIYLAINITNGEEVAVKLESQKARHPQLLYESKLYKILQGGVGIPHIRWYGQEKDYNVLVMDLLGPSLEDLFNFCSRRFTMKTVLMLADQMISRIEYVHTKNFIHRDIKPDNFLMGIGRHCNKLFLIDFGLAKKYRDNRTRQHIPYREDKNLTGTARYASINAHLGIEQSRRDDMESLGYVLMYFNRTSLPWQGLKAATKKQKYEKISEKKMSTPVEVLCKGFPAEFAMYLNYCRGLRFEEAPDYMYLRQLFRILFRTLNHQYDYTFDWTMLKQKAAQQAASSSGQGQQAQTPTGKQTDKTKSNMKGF

Row | SMILES | IC50 [1] [nM] | IC50 (full-length human CSNK1D) [nM] | IC50 [2] [nM]
1 | O=C(Nc1cc(-c2[nH]c3c(OC4CC4)cc(F)nc3c2-c2ccccn2)ccn1)C(CC(F)F)c1ccc(F)cc1 (single isomer, unassigned) [Example 44, N-{4-[7-(cyclopropyloxy)-5-fluoro-3-(pyridin-2-yl)-1H-pyrrolo[3,2-b]pyridin-2-yl]pyridin-2-yl}-4,4-difluoro-2-(4-fluorophenyl)butanamide] | 6.02 | 5.31 | 6.02
2 | COCCOc1cc(F)nc2c(-c3ccccn3)c(-c3ccnc(NC(=O)C(CC(F)F)c4ccc(F)cc4)c3)[nH]c12 (single isomer, unassigned) [Example 90, (2R or S)-4,4-difluoro-N-{4-[5-fluoro-7-(2-methoxyethoxy)-3-(pyridin-2-yl)-1H-pyrrolo[3,2-b]pyridin-2-yl]pyridin-2-yl}-2-(4-fluorophenyl)butanamide] | 2.43 | 2.5 | 2.43
3 | COCCOc1cc(F)nc2c(-c3ccccn3)c(-c3ccnc(NC(=O)C(CC(F)F)c4ccc(F)cc4)c3)[nH]c12 (single isomer, unassigned) [Example 91, (2R or S)-4,4-difluoro-N-{4-[5-fluoro-7-(2-methoxyethoxy)-3-(pyridin-2-yl)-1H-pyrrolo[3,2-b]pyridin-2-yl]pyridin-2-yl}-2-(4-fluorophenyl)butanamide] | 9.57 | 23.4 | 9.57
4 | O=C(Nc1cc(-c2[nH]c3nc(OC(F)F)cnc3c2-c2ccccn2)ccn1)C(CC(F)F)c1ccc(F)cc1 (single isomer, unassigned) [Example 106, N-{4-[3-(difluoromethoxy)-7-(pyridin-2-yl)-5H-pyrrolo[2,3-b]pyrazin-6-yl]pyridin-2-yl}-4,4-difluoro-2-(4-fluorophenyl)butanamide] | 4.32 | 6.1 | 4.32
5 | O=C(Nc1cc(-c2[nH]c3nc(OC(F)F)cnc3c2-c2ccccn2)ccn1)C(CC(F)F)c1ccc(F)cc1 (single isomer, unassigned) [Example 107, N-{4-[3-(difluoromethoxy)-7-(pyridin-2-yl)-5H-pyrrolo[2,3-b]pyrazin-6-yl]pyridin-2-yl}-4,4-difluoro-2-(4-fluorophenyl)butanamide] | 64.6 | 117 | 64.6
6 | Cc1cc(F)nc2c(-c3ccccn3)c(-c3ccnc(NC(=O)C(CC(F)F)c4ccc(F)cc4)c3)[nH]c12 (single isomer, unassigned; (+)) [Example 37, (+)-4,4-difluoro-N-{4-[5-fluoro-7-methyl-3-(pyridin-2-yl)-1H-pyrrolo[3,2-b]pyridin-2-yl]pyridin-2-yl}-2-(4-fluorophenyl)butanamide] | 3.97 | 8.32 | 3.97
7 | O=C(Nc1cc(-c2[nH]c3cc(Cl)cnc3c2-c2ccccn2)ccn1)C(CC(F)F)c1ccc(F)cc1 (stereo not drawn) [Example 87, N-{4-[6-chloro-3-(pyridin-2-yl)-1H-pyrrolo[3,2-b]pyridin-2-yl]pyridin-2-yl}-4,4-difluoro-2-(4-fluorophenyl)butanamide] | 6.08 | 10.8 | 6.08
8 | O=C(Nc1cc(-c2[nH]c3ccc(F)nc3c2-c2ccc(F)cn2)ccn1)C(CC(F)F)c1ccc(F)cc1 (stereo not drawn) [Example 108, 4,4-difluoro-N-{4-[5-fluoro-3-(5-fluoropyridin-2-yl)-1H-pyrrolo[3,2-b]pyridin-2-yl]pyridin-2-yl}-2-(4-fluorophenyl)butanamide] | 4.55 | 5.93 | 4.55
